Measured values published in ChEMBL document CHEMBL1141558, “Design and synthesis of a siderophore conjugate as a potent PSMA inhibitor and potential diagnostic agent for prostate cancer” (Bioorg Med Chem, 2008).

What was measured:
[1] = molecular target: T1, Glutamate carboxypeptidase 2 (Homo sapiens, UniProt Q04609); assay: Inhibition of human recombinant NAALADase
[2] = molecular target: T1, Glutamate carboxypeptidase 2; assay: Inhibition of NAALADase expressed in LNCaP human prostate cancer cells; assay type: cell-based

T1 sequence (Q04609 whole entry): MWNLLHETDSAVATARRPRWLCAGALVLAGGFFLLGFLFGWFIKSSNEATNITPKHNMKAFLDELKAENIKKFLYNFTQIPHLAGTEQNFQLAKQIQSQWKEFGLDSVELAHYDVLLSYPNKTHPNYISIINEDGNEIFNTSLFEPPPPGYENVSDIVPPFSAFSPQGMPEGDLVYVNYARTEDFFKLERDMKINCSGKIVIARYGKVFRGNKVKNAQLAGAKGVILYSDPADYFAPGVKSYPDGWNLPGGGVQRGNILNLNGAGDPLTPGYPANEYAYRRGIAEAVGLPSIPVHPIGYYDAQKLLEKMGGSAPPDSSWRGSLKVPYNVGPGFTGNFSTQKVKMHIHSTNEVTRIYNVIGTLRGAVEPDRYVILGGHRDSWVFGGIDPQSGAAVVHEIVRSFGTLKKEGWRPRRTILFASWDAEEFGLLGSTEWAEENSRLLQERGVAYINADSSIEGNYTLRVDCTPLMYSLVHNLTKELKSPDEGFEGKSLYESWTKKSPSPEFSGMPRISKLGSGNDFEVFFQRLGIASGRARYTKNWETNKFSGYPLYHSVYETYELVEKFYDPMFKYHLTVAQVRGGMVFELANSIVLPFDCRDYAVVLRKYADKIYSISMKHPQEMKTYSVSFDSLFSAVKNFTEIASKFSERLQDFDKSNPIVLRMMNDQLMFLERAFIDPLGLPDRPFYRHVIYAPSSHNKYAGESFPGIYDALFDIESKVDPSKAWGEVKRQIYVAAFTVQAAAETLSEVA

Row | SMILES | IC50 [1] [nM] | IC50 [2] [nM]
1 | CC(=O)N[C@@H](CCCN(O)C(C)=O)C(=O)N[C@@H](CCCN(O)C(C)=O)C(=O)N[C@@H](CCCN(O)C(C)=O)C(=O)NCCCC(=O)c1ccc(C(=O)NCC(=O)Nc2ccc(CCOP(=O)(O)C[C@@H](CCC(=O)O)C(=O)O)cc2)cc1 | 4 | –
2 | O=C(O)CCC(CP(=O)(O)OCc1ccccc1)C(=O)O (configuration not stated) | – | 12.5
